Consider five molecules from patent US7858579B2, “Thermoprotective compositions of pkg pathway inhibitors and method of use thereof” (priority 2005, dated 2010).

Assay [1] concerns ventilatory pattern generator of the locust, Locusta migratoria. In words: Hyperthermic failure and recovery of locust ventilatory motor pattern. Type of assay: in vivo. Conditions: for thermotolerance of neural function (failure temperature, FIG. 7A): 1 μM KT5823, 1 μM Cantharidin, 40 μM 8-Bromo cGMP. The protocol:
To determine if the thermoprotective consequences of PKG manipulations also apply to central circuitry and motor pattern generation, the thermotolerance of the ventilatory pattern generator was measured (Robertson, R. M. 2004) of the locust, Locusta migratoria. […] Ventilatory arrhythmias (Arr) in untreated animals prior to hyperthermic failure are rarely seen in preparations treated with the PKG inhibitor (FIG. 4.). At failure, temperature was returned to room temperature and time to recovery recorded. Pretreated controls recover after 180.2±42.4 sec whereas KT5823-pretreated animals recover after 62.3±13.4 sec. […] Once ventilatory pattern failure occurs during a temperature ramp, heating was terminated and the motor pattern was monitored until recovery.
Male locusts aged 4-6 weeks were dissected and pinned on a cork board; overlying tissue was removed exposing the metathoracic ganglion. Standard locust saline was superfused and heated at a rate of 5° C./2 min. until motor pattern failure, after which saline was allowed to return to room temperature. Ventilatory motor patterns were monitored using an EMG electrode on muscle 161 in the second abdominal segment. Pressure injection (32±13.5 nL, 10 psi, 150 ms) into the ventilatory neuropil was with a glass microelectrode filled with either 1 μM KT5823 in standard locust saline or locust saline alone (sham treatment) 10 min. (pretreated) before, or during (acutely treated; ˜3 min. before failure in controls) the temperature ramp.
FIGS. 7 to 8 illustate hyperthermic failure of locust ventilatory motor pattern generation. FIG. 8 illustrates sample traces of the ventilatory rhythm recorded from an abdominal expiratory muscle in a control locust. The ventilatory arrhythmias prior to failure should be noted. At failure, temperature was allowed to return to room temperature and time to recovery was recorded. The ventilatory motor pattern after recovery is at a lower frequency than just prior to failure because the temperature is lower. […] Significant differences were found across all groups (ANOVA F(9,105)=13.160, p<0.001). […] Here too significant differences were found across all groups (ANOVA […], p<0.001) N>5 for all treatments. […] Error bars represent SEM.

Assay [2] shares this test system. The assay is described as above. Type of assay: in vivo.
Assay [3] has as its system febrile seizures. As to conditions: intermittent treatment of febrile seizures; cited from earlier work.

For the molecule `Nc1nc2c(nc(Br)n2[C@@H]2O[C@@H]3COP(=O)(O)O[C@H]3[C@H]2O)c(=O)[nH]1` [8-Bromo cGMP, 8-bromo-guanosine 3′,5′-cyclic monophosphate], in assay [1], the “thermotolerance of neural function (failure temperature, FIG. 7A)” value (shortened to “thermotolerance of neural function”) is on record as “did not increase the thermotolerance of the circuit”. Also, in assay [1] (40 μM, HS animals (3 hr at 45° C.)), the “effect on protective effects of heat shock preconditioning” value is on record as “abolished the protective effects of heat shock preconditioning”.
As for `CC12C(=O)OC(=O)C1(C)C1CCC2O1` (stereo not shown) [Cantharidin, Hexahydro-3a,7a-dimethyl-4,7-epoxyisobenzofuran-1,3-dione], the “thermotolerance in HS animals given 8-Bromo cGMP plus Cantharidin” value in assay [1] (1 μM Cantharidin with 40 μM 8-Bromo cGMP, HS animals) was “counteracted the effect of 8-Bromo cGMP in HS animals thereby inducing maximal thermotolerance”. In addition, in assay [1], the “thermotolerance of neural function” value is given as “increased the thermotolerance of neural function”.
Take `COC(=O)[C@@]1(OC)C[C@H]2O[C@]1(C)n1c3ccccc3c3c4c(c5c6ccccc6n2c5c31)C(=O)N(C)C4` [KT5823]: the “thermotolerance of neural function” value in assay [1] is “increased the thermotolerance of neural function”. In assay [1] (1 μM pressure injection, data not shown), the “acute effect of injection on ventilatory rhythm frequency, burst duration or duty cycle” value is “no acute effect”. In addition, the “preparations with arrhythmias before failure” value in assay [1] (during temperature ramp, controls 60%) was found to be 11%. For the same molecule, the “thermal protection of the circuit, pretreated” value in assay [2] (25 nL of 1 μM injected 10 minutes before increasing temperature) is “thermoprotection and rapid recovery of the circuit was observed”. Further, the “thermal protection of the circuit, acutely treated” value in assay [2] (one 25 nL dose injected during temperature ramp 3 min. before failure) was “extremely rapid and equally pronounced thermal protection of the circuit was observed”. For the same molecule, in assay [2] (pretreated: 25 nL of 1 μM injected into ventilatory neuropil 10 min before temperature ramp, return to room temperature at failure), the “time to recovery of ventilatory motor pattern after failure” value stood at 62.3 ± 13.4 s.
As to `Nc1ncnc2c1ncn2[C@@H]1O[C@@H]2COP(O)(=S)O[C@H]2[C@H]1O` (stereo partly shown) [RP-cAMP], in assay [1] (PKA inhibitor, data not shown), the “failure temperature compared with controls” value was “no significant differences” and the “recovery time compared with controls” value is “no significant differences”.
With `CN1C(=O)CN=C(c2ccccc2)c2cc(Cl)ccc21` [diazepam], the “reduction in risk per patient year” value in assay [3] is 44%.
